Data as given in patent publication US4565811A, “Sodium salt of ursodeoxycholic sulphate” (Istituto Biologico Chemioterapico "ABC" S.p.A., priority 1983, dated 1986).
Read-outs that look alike come from different tables or passages of the source.

Key:
[1] = test system: hyperdislipidemia caused by Triton WR-1339 in the rat; test: Action on the hyperdislipidemia caused by Triton WR-1339 in the rat; assay type: in vivo, Albinus rats (Witar); settings: for Alfa-Lipoproteins: Increase towards Group 2 / Beta-Lipoproteins: Inhibition towards Group 2 / Beta/alfa ratio: Inhibition towards Group 2 / Total cholesterol: Inhibition in comparison with Group 2 / Total lipids: Inhibition in comparison with Group 2 / Triglycerids: Inhibition in comparison with Group 2: vs Group 2 (Triton control)
Protocol: Action on the hyperdislipidemia caused by Triton WR-1339 in the rat
Albinus rats (Witar) of 300-320 g each, having been fed only with water "ad libitum" for 12 hours, were treated with US and UA, by oral route, 4 hours before and 15 hours after the administration intraperitenously of Triton WR-1339 at the dosage of 300 mg/kg in 10 ml/kg of physiologic solution at 0.9%.
US and UA dosages were 25, 50 and 100 mg/kg respectively and the rats were divided in the following groups of 10 animals each.
Group 1: Controls treated with 10 ml/kg of physiological solution at 0.9% orally.
Group 2: Controls treated with 300 mg/kg of Triton WR-1339 i.p. and 10 ml/kg of carboxy methyl cellulose (CMC) at 0.5%.
Group 3, 4 and 5: UA at 25, 50 and 100 mg/kg respectively suspended in 10 ml/kg of CMC at 0.5%.
Groups 6, 7 and 8: US at 25, 50 and 100 mg/kg respectively dissolved in 10 ml/kg of physiologic solution.
The following Tables 1 and 2 list the results of blood-tests from addominal aorta of rats sacrificed 5 hours after the last treatment: […]

[2] = cited from earlier work
[3] = known compounds; cited from earlier work
[4] = Solubility in water / acidity; assay type: physicochemical
[5] = 25 mg/kg os, Triton WR-1339 rat
[6] = 50 mg/kg os, Triton WR-1339 rat
[7] = 100 mg/kg os, Triton WR-1339 rat

## C[C@H](CCC(=O)O)[C@H]1CC[C@H]2[C@@H]3[C@@H](O)C[C@@H]4C[C@H](O)CC[C@]4(C)[C@H]3CC[C@]12C [UA, ursodeoxycholic acid, reference compound]
[1]; [5]
  Alfa-Lipoproteins Average ± SD: 27,6 ± 9,8 mg/100 ml serum
  Beta-Lipoproteins Average ± SD: 221,17 ± 38,4 mg/100 ml serum
  Beta/alfa ratio Average ± SD: 8,95 ± 3,5 mg/100 ml serum
  Total cholesterol Average ± SD: 244,8 ± 34,5 mg/100 ml serum
  Total lipids Average ± SD: 3011,4 ± 513,6 mg/100 ml serum
  Triglycerids Average ± SD: 1167,14 ± 180,5 mg/100 ml serum
[1]; 25 mg/kg os
  Alfa-Lipoproteins: Increase towards Group 2: +23,2%
  Beta-Lipoproteins: Inhibition towards Group 2: -19,1%
  Beta/alfa ratio: Inhibition towards Group 2: -28,2%
  Total cholesterol: Inhibition in comparison with Group 2: -15,9%
  Total lipids: Inhibition in comparison with Group 2: -21,1%
  Triglycerids: Inhibition in comparison with Group 2: -11,0%
[1]; [6]
  Alfa-Lipoproteins Average ± SD: 41,7 ± 11,3 mg/100 ml serum
  Beta-Lipoproteins Average ± SD: 133,7 ± 60,4 mg/100 ml serum
  Beta/alfa ratio Average ± SD: 3,88 ± 1,73 mg/100 ml serum
  Total cholesterol Average ± SD: 175,47 ± 54,26 mg/100 ml serum
  Total lipids Average ± SD: 2517,3 ± 557,6 mg/100 ml serum
  Triglycerids Average ± SD: 893,6 ± 298,1 mg/100 ml serum
[1]; 50 mg/kg os
  Alfa-Lipoproteins: Increase towards Group 2: +86,1%
  Beta-Lipoproteins: Inhibition towards Group 2: -51,2%
  Beta/alfa ratio: Inhibition towards Group 2: -68,8%
  Total cholesterol: Inhibition in comparison with Group 2: -40,7%
  Total lipids: Inhibition in comparison with Group 2: -34,1%
  Triglycerids: Inhibition in comparison with Group 2: -31,9%
[1]; [7]
  Alfa-Lipoproteins Average ± SD: 39,64 ± 11,4 mg/100 ml serum
  Beta-Lipoproteins Average ± SD: 115,5 ± 58,7 mg/100 ml serum
  Beta/alfa ratio Average ± SD: 3,41 ± 2,29 mg/100 ml serum
  Total cholesterol Average ± SD: 155,2 ± 50,3 mg/100 ml serum
  Total lipids Average ± SD: 2241,14 ± 517,4 mg/100 ml serum
  Triglycerids Average ± SD: 628,8 ± 223,0 mg/100 ml serum
[1]; 100 mg/kg os
  Alfa-Lipoproteins: Increase towards Group 2: +76,8%
  Beta/alfa ratio: Inhibition towards Group 2: -72,6%
  Total cholesterol: Inhibition in comparison with Group 2: -47,6%
  Total lipids: Inhibition in comparison with Group 2: -41,3%
  Triglycerids: Inhibition in comparison with Group 2: -52,1%
[1]; 25, 50 and 100 mg/kg oral, Triton WR-1339 rat
  Dose dependence of activity inhibiting the hyperdislipidemia: depends on the dosage
[2]; bile saturated with cholesterol
  Effect on cholesterol stones: prevents the formation of cholesterol stones
[2]; under suitable conditions
  Dissolution of radiotransparent stones: able to dissolve under suitable conditions the radiotransparent stones
[3]
  Solubility in water: pratically insoluble in water

## CC(CCC(=O)O)C1CCC2C3C(OS(=O)(=O)O)CC4CC(OS(=O)(=O)O)CCC4(C)C3CCC12C (stereo not drawn) [ursodeoxycholic O-sulphate]
[4]; free acid
  Acidity: very high acidity
[4]
  Solubility in water: very soluble in water
[4]; listed as ursosulphate acid
  Solubility in water: very soluble in water with acid reaction
